Test results: patent EP4755875A1, “PHTHALAZINONE COMPOUND AND PREPARATION METHOD THEREFOR, PHARMACEUTICAL COMPOSITION, AND USE” (Beijing Wehand-Bio Pharmaceutical Co., Ltd, priority 2023, dated 2025)

Tests used:
[1] = tested on: PC-12 cells; experiment: In vitro neuroprotective activity, glutamate injury model (CCK-8 viability); format: cell-based; conditions: Rattus norvegicus; compound 10 µM; PC-12 cells injured with glutamate (8 mM) for 2 h; 24-hour incubation; relative to model group; read-out: Improved Viability (%)
Description: (§1) The in vitro neuroprotective models for evaluating the test compound were hydrogen peroxide injury and glutamate injury models. The PC-12 cells were seeded in a 96-well plate at a density of 1.5 × 10^4 cells/mL, 100 µL per well. The experiment included a blank group, a model group, and drug treatment groups. The hydrogen peroxide injury and glutamate injury models were stimulated for 2 h with a final concentration of 120 µM hydrogen peroxide or 8 mM glutamate, respectively. Subsequently, the cells in the blank group were cultured in complete medium, whereas the cells in the drug treatment groups were cultured by adding 10 µM test compound. After 24-hour incubation for all groups, 10 µL of CCK-8 was added to each well. 60 min later, the absorbance at 490 nm was measured using a microplate reader. The viability was calculated. Improved Viability = (Viability in Drug Treatment Group - Viability in Model Group)/(Viability in Model Group). Table 1 Protective Effects of Phthalazinone Compounds on Nerve Cell Injury Induced by Hydrogen Peroxide (120 µM)

[2] = tested on: PC-12 cells; experiment: In vitro neuroprotective activity, hydrogen peroxide injury model (CCK-8 viability); format: cell-based; conditions: Rattus norvegicus; compound 10 µM; PC-12 cells injured with hydrogen peroxide (120 µM) for 2 h; 24-hour incubation; relative to model group; read-out: Improved Viability (%)
Description: as §1

[3] = tested on: rats with ischemic stroke; experiment: In vivo anti-ischemic stroke activity, middle cerebral artery occlusion model; set-up: species or system SD rats

`CCCCc1nn(CC)c(=O)c2c(OC)cccc12` [Compound 2, 2-Ethyl-4-butyl-8-methoxy-phthalazin-1(2H)-one] gave an activation at 10 µM [1] of 0.04 ± 1.05% and an activation at 10 µM [2] of 35.8 ± 3.55%.

`CCCCc1nn(CC2CC2)c(=O)c2c(OC)cccc12` [Compound 4, 2-(Cyclopropylmethyl)-4-butyl-8-methoxy-phthalazin-1(2H)-one] gave an activation at 10 µM [1] of 9.75 ± 3.22% and an activation at 10 µM [2] of 23.4 ± 1.83%.

Compound `CCCCc1nn(CC2CCCCC2)c(=O)c2c(OC)cccc12` [Compound 5] has an activation at 10 µM [1] of 14 ± 6.21% and an activation at 10 µM [2] of 61.9 ± 6.53%.

For `CCCCc1nn(CC)c(=O)c2c(OCC3CCCCC3)cccc12` [Compound 7, 2-Ethyl-4-butyl-8-(cyclohexylmethoxy)-phthalazin-1(2H)-one], the activation at 10 µM [2] was 0.81 ± 0.37%.

With `CCCCc1nn(Cc2ccccc2)c(=O)c2c(OCC3CCCCC3)cccc12` [Compound 8, 2-Benzyl-4-butyl-8-(cyclohexylmethoxy)-phthalazin-1(2H)-one] the activation at 10 µM [1] was 7.99 ± 2.98% and the activation at 10 µM [2] was 12.1 ± 3.25%.

`CCCCc1n[nH]c(=O)c2c(OCCC)cccc12` [Compound 9, 4-Butyl-8-propoxy-phthalazin-1(2H)-one] showed an activation at 10 µM [1] of 7.48 ± 3.07% and an activation at 10 µM [2] of 60.2 ± 5.87%.

With `CCCCc1nn(Cc2ccncc2)c(=O)c2c(OCCC)cccc12` [Compound 10, 2-(Pyridin-4-methylene)-4-butyl-8-propoxy-phthalazin-1(2H)-one] the activation at 10 µM [2] was 1.93 ± 2.37%.

`CCCCc1nn(Cc2ccc(F)cc2)c(=O)c2c(OCCC)cccc12` [Compound 11, 2-(4-Fluorobenzyl)-4-butyl-8-propoxy-phthalazin-1(2H)-one] was tested, and the activation at 10 µM [1] was 32.7 ± 6.21% and the activation at 10 µM [2] was 96.8 ± 8.64%.

`CCCCc1nn(CCC)c(=O)c2c(OCCC)cccc12` [Compound 12, 2-Propyl-4-butyl-8-propoxy-phthalazin-1(2H)-one] was tested, and the activation at 10 µM [1] was 5.11 ± 2.33% and the activation at 10 µM [2] was 12.9 ± 6.03%.

Compound `CCCCc1nn(CC2CC2)c(=O)c2c(OCCC)cccc12` [Compound 13, 2-(Cyclopropylmethyl)-4-butyl-8-propoxy-phthalazin-1(2H)-one] has an activation at 10 µM [1] of 47.8 ± 8.14% and an activation at 10 µM [2] of 3.14 ± 1.45%.

`CCCCc1nn(CC2CCCCC2)c(=O)c2c(OCCC)cccc12` [Compound 14, 2-(Cyclohexylmethyl)-4-butyl-8-propoxy-phthalazin-1(2H)-one] was tested, and the activation at 10 µM [1] was 3.16 ± 3.54% and the activation at 10 µM [2] was 6.68 ± 3.51%.

Compound `CCCCc1nn(Cc2ccc3ccccc3c2)c(=O)c2c(OCCC)cccc12` [Compound 15, 2-(Naphthylmethyl)-4-butyl-8-propoxy-phthalazin-1(2H)-one] has an activation at 10 µM [2] of 1.59 ± 1.13%.

`CCCCc1nn(Cc2ccc(F)cc2)c(=O)c2c(OCC3CC3)cccc12` [Compound 17, 2-(4-Fluorobenzyl)-4-butyl-8-(cyclopropylmethoxy)-phthalazin-1(2H)-one] was tested, and the activation at 10 µM [1] was 12.2 ± 2.57%, the activation at 10 µM [2] was 33 ± 2.37% and the “survival rate of rats with ischemia-reperfusion injury” value ([3]; intragastric 10, 30 and 60 mg/kg, once daily for 7 days, FIG. 1) was “effectively increase”. The “body weight of rats” value ([3]; intragastric 10, 30 and 60 mg/kg, once daily for 7 days, FIG. 2) was “reverse the decrease trend”, the “volume of cerebral infarction” value ([3]; intragastric 10, 30 and 60 mg/kg, once daily for 7 days, TTC staining, FIG. 3) was “reduce the volume of cerebral infarction in a dose-dependent manner” and the “effects compared with positive control drug butylphthalide (200 mg/kg)” value ([3]; survival rate, body weight, infarction volume, Compound 17 at 10, 30, 60 mg/kg by gavage) was “superior”.

`CCCCc1nn(CC)c(=O)c2c(OCc3ccc4ccccc4c3)cccc12` [Compound 20, 2-Ethyl-4-butyl-8-(naphthalene-2-methoxy)-phthalazin-1(2H)-one] showed an activation at 10 µM [1] of 8.77 ± 3.01% and an activation at 10 µM [2] of 34 ± 3.92%.

For `CC1=NN(c2ccccc2)C(=O)C1` [Edaravone, reference compound], the activation at 10 µM [1] was 3.14 ± 0.85% and the activation at 10 µM [2] was 11.3 ± 2.15%.
